Data reported in publication PMC6379670, “An ultra-high affinity ligand of HIV-1 TAR reveals the RNA structure recognized by P-TEFb” (Nucleic Acids Research, 2018).
Non-standard residues stand in square brackets, D forms with d. Residues, ends and D or L forms follow the SMILES beside them. hArg = N=C(N)NCCCC[C@H](N)C(=O)O

Target: HIV-1 TAR RNA
Assay: not given
Assay type: binding
Conditions: EMSA; positional scanning library, Table S1; with tRNA; read-out: Kd (nM) w/tRNA
Method: Electro Mobility Shift Assays (EMSA) and 2-aminopurine fluorescence ([35]) were used to measure peptide binding. For EMSA, all RNAs were 5′-dephosphorylated ([25],[26]) and 5′-rephosphorylated using T4 Polynucleotide Kinase (PNK); shifts were performed and analyzed as previously described ([14]). The P-TEFb/Tat1:57/AFF4 binding assays were run as described ([11]), with protein samples generously donated by Drs Ursula Schulze-Gahmen and James Hurley, but binding buffers contained 250× fold excess yeast tRNA. JB181-bound samples were prepared with 3× excess labeled HIV-TAR prior to titration with the pre-formed P-TEFb/Tat1:57/AFF4 complex.
Fig. S1. a) HIV-1 TAR, BIV TAR and 7SK-SL4 RNAs have similar secondary structures, but the JB181 peptide discriminates between them. […]
tightly than BIV TAR (3.3 nM) or 7SK (>3 μM) RNAs. b) EMSA of representative JB-peptides with 32P radiolabeled HIV-1 TAR RNA ([RNA]=75pM). The peptide concentration increases from left to right, as indicated. The dissociation constant can be estimated by the peptide concentration where there is an approximate 1:1 ratio (as established by visual inspection) between free RNA and complex, since the RNA concentration is much lower than the KD.
(1 picture or pasted object on this page, not shown here)

| Compound | Kd |
| --- | --- |
| CC[C@H](C)[C@@H]1NC(=O)[C@H](CCCNC(=N)N)NC(=O)[C@H](Cc2c[nH]c3ccccc23)NC(=O)CNC(=O)[C@H](CCCCN)NC(=O)[C@H](CCCNC(=N)N)NC(=O)[C@H]([C@@H](C)O)NC(=O)[C@H](CCCNC(=N)N)NC(=O)[C@H](C(C)C)NC(=O)[C@H](CCCNC(=N)N)NC(=O)[C@@H]2CCCN2C(=O)[C@H]2CCCN2C(=O)[C@H]([C@@H](C)CC)NC(=O)[C@H](CCCNC(=N)N)NC1=O [JB-70] (cyclo(RVRTRKGWRIRI[dP]P)) | > 1000 nM |
| CC[C@H](C)[C@@H]1NC(=O)[C@H](CCCCN)NC(=O)[C@H](CCCNC(=N)N)NC(=O)CNC(=O)[C@H](CCCCN)NC(=O)[C@H](CCCNC(=N)N)NC(=O)[C@H]([C@@H](C)O)NC(=O)[C@H](CCCNC(=N)N)NC(=O)[C@H](C(C)C)NC(=O)[C@H](CCCNC(=N)N)NC(=O)[C@@H]2CCCN2C(=O)[C@H]2CCCN2C(=O)[C@H]([C@@H](C)CC)NC(=O)[C@H](CCCNC(=N)N)NC1=O [JB-71] (cyclo(RVRTRKGRKIRI[dP]P)) | > 1000 nM |
| CC[C@H](C)[C@@H]1NC(=O)[C@H](CCCNC(=N)N)NC(=O)[C@H](CCCNC(=N)N)NC(=O)CNC(=O)[C@H](CCCCN)NC(=O)[C@H](CCCNC(=N)N)NC(=O)[C@H]([C@@H](C)O)NC(=O)[C@@H](CCCNC(=N)N)NC(=O)[C@H](C(C)C)NC(=O)[C@H](CCCNC(=N)N)NC(=O)[C@@H]2CCCN2C(=O)[C@H]2CCCN2C(=O)[C@H]([C@@H](C)CC)NC(=O)[C@H](CCCNC(=N)N)NC1=O [JB-72] (cyclo(RV[dR]TRKGRRIRI[dP]P)) | > 1000 nM |
| CC[C@H](C)[C@@H]1NC(=O)[C@H](Cc2ccc(O)cc2)NC(=O)[C@H](CCCNC(=N)N)NC(=O)CNC(=O)[C@H](CCCCN)NC(=O)[C@H](CCCNC(=N)N)NC(=O)[C@H]([C@@H](C)O)NC(=O)[C@H](CCCNC(=N)N)NC(=O)[C@H](C(C)C)NC(=O)[C@H](CCCNC(=N)N)NC(=O)[C@@H]2CCCN2C(=O)[C@H]2CCCN2C(=O)[C@H]([C@@H](C)CC)NC(=O)[C@H](CCCNC(=N)N)NC1=O [JB-73] (cyclo(RVRTRKGRYIRI[dP]P)) | > 1000 nM |
| CC[C@H](C)[C@@H]1NC(=O)[C@H](Cc2c[nH]c3ccccc23)NC(=O)[C@H](CCCNC(=N)N)NC(=O)CNC(=O)[C@H](CCCCN)NC(=O)[C@H](CCCNC(=N)N)NC(=O)[C@H]([C@@H](C)O)NC(=O)[C@H](CCCNC(=N)N)NC(=O)[C@H](C(C)C)NC(=O)[C@H](CCCNC(=N)N)NC(=O)[C@@H]2CCCN2C(=O)[C@H]2CCCN2C(=O)[C@H]([C@@H](C)CC)NC(=O)[C@H](CCCNC(=N)N)NC1=O [JB-74] (cyclo(RVRTRKGRWIRI[dP]P)) | > 1000 nM |
| CC[C@H](C)[C@@H]1NC(=O)[C@H](CCCNC(=N)N)NC(=O)[C@H](CCCNC(=N)N)NC(=O)CNC(=O)[C@H](CCCCN)NC(=O)[C@H](CCCNC(=N)N)NC(=O)[C@H]([C@@H](C)O)NC(=O)[C@H](CCCNC(=N)N)NC(=O)[C@H](C(C)C)NC(=O)[C@H](CCCNC(=N)N)NC(=O)[C@@H]2CCCN2C(=O)[C@H]2CCCN2C(=O)[C@H]([C@@H](C)CC)NC(=O)[C@H](Cc2c[nH]cn2)NC1=O [JB-77] (cyclo(RVRTRKGRRIHI[dP]P)) | > 1000 nM |
| CC[C@H](C)[C@@H]1NC(=O)[C@H](CCCNC(=N)N)NC(=O)[C@H](CCCNC(=N)N)NC(=O)CNC(=O)[C@H](CCCCN)NC(=O)[C@H](CCCNC(=N)N)NC(=O)[C@H]([C@@H](C)O)NC(=O)[C@H](CCCNC(=N)N)NC(=O)[C@H](C(C)C)NC(=O)[C@H](CCCNC(=N)N)NC(=O)[C@@H]2CCCN2C(=O)[C@H]2CCCN2C(=O)[C@H]([C@@H](C)CC)NC(=O)[C@H](Cc2ccc(O)cc2)NC1=O [JB-78] (cyclo(RVRTRKGRRIYI[dP]P)) | > 1000 nM |
| CC[C@H](C)[C@@H]1NC(=O)[C@H](CCCNC(=N)N)NC(=O)[C@H](CCCNC(=N)N)NC(=O)CNC(=O)[C@H](CCCCN)NC(=O)[C@H](CCCNC(=N)N)NC(=O)[C@H]([C@@H](C)O)NC(=O)[C@H](CCCNC(=N)N)NC(=O)[C@H](C(C)C)NC(=O)[C@H](CCCNC(=N)N)NC(=O)[C@@H]2CCCN2C(=O)[C@H]2CCCN2C(=O)[C@H]([C@@H](C)CC)NC(=O)[C@H](Cc2c[nH]c3ccccc23)NC1=O [JB-79] (cyclo(RVRTRKGRRIWI[dP]P)) | > 1000 nM |
| CC[C@H](C)[C@@H]1NC(=O)[C@H](CCCNC(=N)N)NC(=O)[C@H](CCCNC(=N)N)NC(=O)CNC(=O)[C@H](CCCCN)NC(=O)[C@H](CCCNC(=N)N)NC(=O)[C@H]([C@@H](C)O)NC(=O)[C@H](CCCNC(=N)N)NC(=O)[C@H](C(C)C)NC(=O)[C@H](CCCNC(=N)N)NC(=O)[C@@H]2CCCN2C(=O)[C@H]2CCCN2C(=O)[C@H](C)NC(=O)[C@H](CCCNC(=N)N)NC1=O [JB-83] (cyclo(RVRTRKGRRIRA[dP]P)) | > 1000 nM |
| CC[C@H](C)[C@@H]1NC(=O)[C@H](CCCNC(=N)N)NC(=O)[C@H](CCCNC(=N)N)NC(=O)CNC(=O)[C@H](CCCCN)NC(=O)[C@H](CCCNC(=N)N)NC(=O)[C@H]([C@@H](C)O)NC(=O)[C@H](CCCNC(=N)N)NC(=O)[C@H](C(C)C)NC(=O)[C@H](CCCCNC(=N)N)NC(=O)[C@@H]2CCCN2C(=O)[C@H]2CCCN2C(=O)[C@H]([C@@H](C)CC)NC(=O)[C@H](CCCNC(=N)N)NC1=O [KP-Y-01] (cyclo([hArg]VRTRKGRRIRI[dP]P)) | 150 nM |
| CC[C@H](C)[C@@H]1NC(=O)[C@H](CCCNC(=N)N)NC(=O)[C@H](CCCNC(=N)N)NC(=O)CNC(=O)[C@H](CCCCN)NC(=O)[C@H](CCCNC(=N)N)NC(=O)[C@H]([C@@H](C)O)NC(=O)[C@H](CCCCNC(=N)N)NC(=O)[C@H](C(C)C)NC(=O)[C@H](CCCNC(=N)N)NC(=O)[C@@H]2CCCN2C(=O)[C@H]2CCCN2C(=O)[C@H]([C@@H](C)CC)NC(=O)[C@H](CCCNC(=N)N)NC1=O [KP-Y-02] (cyclo(RV[hArg]TRKGRRIRI[dP]P)) | 200 nM |
| CC[C@H](C)[C@@H]1NC(=O)[C@H](CCCNC(=N)N)NC(=O)[C@H](CCCNC(=N)N)NC(=O)CNC(=O)[C@H](CCCCN)NC(=O)[C@H](CCCCNC(=N)N)NC(=O)[C@H]([C@@H](C)O)NC(=O)[C@H](CCCNC(=N)N)NC(=O)[C@H](C(C)C)NC(=O)[C@H](CCCNC(=N)N)NC(=O)[C@@H]2CCCN2C(=O)[C@H]2CCCN2C(=O)[C@H]([C@@H](C)CC)NC(=O)[C@H](CCCNC(=N)N)NC1=O [KP-Y-03] (cyclo(RVRT[hArg]KGRRIRI[dP]P)) | 200 nM |
| CC[C@H](C)[C@@H]1NC(=O)[C@H](CCCNC(=N)N)NC(=O)[C@H](CCCCNC(=N)N)NC(=O)CNC(=O)[C@H](CCCCN)NC(=O)[C@H](CCCNC(=N)N)NC(=O)[C@H]([C@@H](C)O)NC(=O)[C@H](CCCNC(=N)N)NC(=O)[C@H](C(C)C)NC(=O)[C@H](CCCNC(=N)N)NC(=O)[C@@H]2CCCN2C(=O)[C@H]2CCCN2C(=O)[C@H]([C@@H](C)CC)NC(=O)[C@H](CCCNC(=N)N)NC1=O [KP-Y-04] (cyclo(RVRTRKG[hArg]RIRI[dP]P)) | 75 nM |
| CC[C@H](C)[C@@H]1NC(=O)[C@H](CCCCNC(=N)N)NC(=O)[C@H](CCCNC(=N)N)NC(=O)CNC(=O)[C@H](CCCCN)NC(=O)[C@H](CCCNC(=N)N)NC(=O)[C@H]([C@@H](C)O)NC(=O)[C@H](CCCNC(=N)N)NC(=O)[C@H](C(C)C)NC(=O)[C@H](CCCNC(=N)N)NC(=O)[C@@H]2CCCN2C(=O)[C@H]2CCCN2C(=O)[C@H]([C@@H](C)CC)NC(=O)[C@H](CCCNC(=N)N)NC1=O [KP-Y-05] (cyclo(RVRTRKGR[hArg]IRI[dP]P)) | 100 nM |

Tested on: JB181 (synthetic)
Assay: EMSA
Conditions: not given

| Compound | Kd |
| --- | --- |
| GGCUCGUGUAGCUCAUUAGCUCCGAGCC [BIV TAR] | 3.3 nM |
| HIV-1 TAR A35C | < 1.3 nM |
| HIV-1 TAR A35G, G28A | 11 nM |
| HIV-1 TAR A35G, G28C | 10 nM |
| HIV-1 TAR A35del | < 1.3 nM |

Same assay, conditions: EMSA: 32P RNA (75-100 pM), 250-fold excess tRNA, buffer as in cited work (not given); 2-AP fluorescence: 100 fM RNA; NMR: 10 mM K phosphate pH 6.5, 10 mM NaCl …

| Compound | Kd |
| --- | --- |
| 7SK-SL4 | > 3000 nM |
